From patent US9346761B2, “Arginine methyltransferase inhibitors and uses thereof” (Epizyme, Inc., priority 2013, dated 2016)

What was measured:
[1] = target: T1, Full-length human PRMT1 isoform 1 (Homo sapiens, UniProt Q99873); assay: PRMT1 biochemical assay (3H-SAM Flashplate, peptide substrate)
T1 construct: GST-tagged PRMT1; made in house; host or cells: High Five insect cells (baculovirus, pFastBacI)
Method in brief: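 Tritiated methyl transfer from 3H-SAM onto biotinylated peptide, captured on streptavidin Flashplates and counted. Baculovirus-expressed GST-PRMT1 and compound were preincubated 30 min at room temperature in Bicine buffer pH 7.6. Cold SAM at 300 uM final ended the reaction.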

[2] = target: T2, Human CARM1 (PRMT4) (Homo sapiens, UniProt Q86X55); assay: CARM1 biochemical assay (3H-SAM Flashplate, peptide substrate)
T2 construct: Flag-CARM1-His was eluted with 200 ug/ml FLAG peptide in buffer A; made in house; host or cells: HEK 293F cells (BacMam virus, pFastBacMam)
T2 sequence (Q86X55 with tags, fused parts or gaps isoform Q86X55-1): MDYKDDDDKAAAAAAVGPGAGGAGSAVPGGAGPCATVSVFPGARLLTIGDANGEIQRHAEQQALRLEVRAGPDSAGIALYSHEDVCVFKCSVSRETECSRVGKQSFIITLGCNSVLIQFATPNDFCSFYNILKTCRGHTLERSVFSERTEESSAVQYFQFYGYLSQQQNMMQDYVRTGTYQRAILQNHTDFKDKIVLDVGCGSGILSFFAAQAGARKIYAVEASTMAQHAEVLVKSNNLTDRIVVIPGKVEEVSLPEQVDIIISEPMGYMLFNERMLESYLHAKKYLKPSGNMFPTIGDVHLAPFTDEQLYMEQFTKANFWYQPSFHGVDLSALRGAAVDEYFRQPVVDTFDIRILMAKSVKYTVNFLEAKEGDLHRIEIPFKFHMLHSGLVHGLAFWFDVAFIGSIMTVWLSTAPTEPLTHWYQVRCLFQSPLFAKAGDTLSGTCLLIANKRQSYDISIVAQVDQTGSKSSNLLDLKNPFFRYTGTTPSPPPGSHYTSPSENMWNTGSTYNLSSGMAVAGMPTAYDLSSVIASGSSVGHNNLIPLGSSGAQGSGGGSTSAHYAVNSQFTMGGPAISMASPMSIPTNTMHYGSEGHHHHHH
From the text: General Materials. S-adenosylmethionine (SAM), S-adenosylhomocysteine (SAH), bicine, Tween20, dimethylsulfoxide (DMSO), bovine skin gelatin (BSG), sodium butyrate and Tris(2-carboxyethyl)phosphine hydrochloride solution (TCEP) were purchased from Sigma-Aldrich at the highest level of purity possible. ^3H-SAM was purchase from American Radiolabeled Chemicals with a specific activity of 80 Ci/mmol. 384-well streptavidin Flashplates were purchased from PerkinElmer.
Substrates. Peptide representative of human histone H3 residues 16-30 was synthesized with an N-terminal linker-affinity tag motif and a C-terminal amide cap by 21st Century Biochemicals.
Protein Expression. Recombinant baculovirus were generated according to Bac-to-Bac kit instructions (Life Technologies). […] Infections were carried out at 37° C. for 48 hours, harvested by centrifugation, and stored at −80° C. for purification.
Protein Purification. […] Column was washed with 500 mM NaCl in buffer A and Flag-CARM1-His was eluted with 200 ug/ml FLAG peptide in buffer A. Pooled fractions were dialyzed in 20 mM Tris, 150 mM NaCl, 5% glycerol and 1 mM DTT, pH 7.8.
General Procedure for CARM1 Enzyme Assays on Peptide Substrates. The assays were all performed in a buffer consisting of 20 mM Bicine (pH=7.6), 1 mM TCEP, 0.005% BSG, and 0.002% Tween 20, prepared on the day of use. […] DMSO (1 ul) was added to Columns 11, 12, 23, 24, rows A-H for the maximum signal control and 1 ul of SAH, a known product and inhibitor of CARM1, was added to columns 11, 12, 23, 24, rows I-P for the minimum signal control. A cocktail (40 ul) containing the CARM1 enzyme was added by Multidrop Combi (Thermo-Fisher). The compounds were allowed to incubate with CARM1 for 30 min at room temperature, then a cocktail (10 ul) containing ^3H-SAM and peptide was added to initiate the reaction (final volume=51 ul). […] The assays were stopped by the addition of non-radiolabeled SAM (10 ul) to a final concentration of 300 uM, which dilutes the ^3H-SAM to a level where its incorporation into the peptide substrate is no longer detectable. 50 ul of the reaction in the 384-well polypropylene plate was then transferred to a 384-well Flashplate and the biotinylated peptides were allowed to bind to the streptavidin surface for at least 1 hour before being washed once with 0.1% Tween20 in a Biotek ELx405 plate washer. The plates were then read in a PerkinElmer TopCount plate reader to measure the quantity of ^3H-labeled peptide bound to the Flashplate surface, measured as disintegrations per minute (dpm) or alternatively, referred to as counts per minute (cpm).
Where dpm=disintegrations per minute, cmpd=signal in assay well, and min and max are the respective minimum and maximum signal controls.
Where top and bottom are the normally allowed to float, but may be fixed at 100 or 0 respectively in a 3-parameter fit. The Hill Coefficient normally allowed to float but may also be fixed at 1 in a 3-parameter fit. Y is the % inhibition and X is the compound concentration.

T1 sequence (Q99873 with tags, fused parts or gaps): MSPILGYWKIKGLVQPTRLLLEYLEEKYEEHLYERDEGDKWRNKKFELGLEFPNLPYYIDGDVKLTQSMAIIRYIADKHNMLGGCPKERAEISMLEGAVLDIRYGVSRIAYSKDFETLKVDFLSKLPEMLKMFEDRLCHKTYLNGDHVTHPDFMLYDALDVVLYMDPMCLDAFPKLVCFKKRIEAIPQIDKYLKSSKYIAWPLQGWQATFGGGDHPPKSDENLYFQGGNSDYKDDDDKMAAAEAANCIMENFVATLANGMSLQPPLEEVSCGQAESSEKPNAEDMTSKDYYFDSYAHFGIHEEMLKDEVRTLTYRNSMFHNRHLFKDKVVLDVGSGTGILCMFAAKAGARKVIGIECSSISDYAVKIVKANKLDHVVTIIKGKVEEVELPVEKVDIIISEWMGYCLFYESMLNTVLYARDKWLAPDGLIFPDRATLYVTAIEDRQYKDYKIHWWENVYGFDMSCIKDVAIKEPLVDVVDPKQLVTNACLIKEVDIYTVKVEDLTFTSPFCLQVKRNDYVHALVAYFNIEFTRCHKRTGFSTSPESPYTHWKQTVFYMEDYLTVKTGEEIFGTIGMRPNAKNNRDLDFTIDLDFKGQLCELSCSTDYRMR

CN(CCN)Cc1n[nH]cc1-c1ccc(C#N)cc1 [Compound 100]
IC50 [1]: < 0.1 µM | IC50 [2]: 3.01 to 10 µM

Cc1ccc(-c2n[nH]cc2CN(C)CCN)cc1Cl [Compound 126]
IC50 [1]: < 0.1 µM | IC50 [2]: 0.101 to 1 µM

COc1cccc(-c2n[nH]cc2CN(C)CCN)c1 [Compound 130]
IC50 [1]: 0.101 to 1 µM | IC50 [2]: 1.01 to 3 µM

COc1ccc(-c2n[nH]cc2CN(C)CCN)cc1F [Compound 134]
IC50 [1]: < 0.1 µM | IC50 [2]: 1.01 to 3 µM

Cc1cccc(-c2n[nH]cc2CN(C)CCN)c1 [Compound 131]
IC50 [1]: < 0.1 µM | IC50 [2]: 1.01 to 3 µM

COc1ccc(-c2n[nH]cc2CN(C)CCN)c(F)c1 [Compound 107]
IC50 [1]: < 0.1 µM | IC50 [2]: 1.01 to 3 µM

CN(CCN)Cc1c[nH]nc1-c1ccc(F)c(Cl)c1 [Compound 124]
IC50 [1]: < 0.1 µM | IC50 [2]: 0.101 to 1 µM

Cc1[nH]nc(-c2ccc(F)cc2)c1CN(C)CCN [Compound 169]
IC50 [1]: 0.101 to 1 µM

CN(CCN)Cc1c[nH]nc1-c1ccc(OCC(F)(F)F)cc1 [Compound 96]
IC50 [1]: < 0.1 µM | IC50 [2]: < 0.1 µM

CN(CCN)Cc1c[nH]nc1-c1ccc(Cl)cc1 [Compound 95]
IC50 [1]: < 0.1 µM | IC50 [2]: 0.101 to 1 µM

COCCn1cc(CN(C)CCN)c(-c2ccc(F)cc2)n1 [Compound 5]
IC50 [1]: 1.01 to 3 µM | IC50 [2]: > 10 µM

CN(CCN)Cc1c[nH]nc1-c1ccc2c(c1)NC(=O)CO2 [Compound 173]
IC50 [1]: 0.101 to 1 µM

COc1ccc(-c2n[nH]cc2CN(C)CCN)c(Cl)c1 [Compound 146]
IC50 [1]: < 0.1 µM | IC50 [2]: 3.01 to 10 µM

CC(=O)c1cccc(-c2n[nH]cc2CN(C)CCN)c1 [Compound 112]
IC50 [1]: < 0.1 µM | IC50 [2]: 1.01 to 3 µM

CN(CCN)Cc1cn(CC2CCOCC2)nc1-c1ccc(F)cc1 [Compound 128]
IC50 [1]: 3.01 to 10 µM | IC50 [2]: > 10 µM

CN(CCN)Cc1cnn(CC(O)CO)c1-c1ccc(F)cc1 (stereo not drawn) [Compound 113]
IC50 [1]: 1.01 to 3 µM | IC50 [2]: > 10 µM

COc1ccc(-c2n[nH]cc2CN(C)CCN)c(C(F)(F)F)c1 [Compound 154]
IC50 [1]: 0.101 to 1 µM | IC50 [2]: > 10 µM

CN(CCN)Cc1c[nH]nc1-c1cc(C#N)ccc1Cl [Compound 147]
IC50 [1]: 1.01 to 3 µM | IC50 [2]: > 10 µM

COc1ccc(F)cc1-c1n[nH]cc1CN(C)CCN [Compound 160]
IC50 [1]: 0.101 to 1 µM | IC50 [2]: > 10 µM

CN(CCN)Cc1c[nH]nc1-c1cc(Cl)ccc1F [Compound 156]
IC50 [1]: 0.101 to 1 µM | IC50 [2]: 3.01 to 10 µM

CN(CCN)Cc1c[nH]nc1-c1ccc(C2CC2)cc1 [Compound 116]
IC50 [1]: < 0.1 µM | IC50 [2]: 1.01 to 3 µM

COc1ccc(-c2n[nH]cc2CN(C)CCN)c(C)c1 [Compound 155]
IC50 [1]: < 0.1 µM | IC50 [2]: > 10 µM

CCN(CC)C(=O)c1ccc(-c2n[nH]cc2CN(C)CCN)cc1 [Compound 143]
IC50 [1]: 0.101 to 1 µM | IC50 [2]: 3.01 to 10 µM

CN(CCN)Cc1n[nH]cc1-c1ccc(C2CC2)cc1 [Compound 104]
IC50 [1]: < 0.1 µM | IC50 [2]: 1.01 to 3 µM

CCn1ncc(CN(C)CCNC)c1-c1ccc(F)cc1 [Compound 7]
IC50 [1]: 0.101 to 1 µM | IC50 [2]: 1.01 to 3 µM

CN(CCN)Cc1c[nH]nc1-c1ccc(C(F)(F)F)cc1F [Compound 148]
IC50 [1]: 0.101 to 1 µM | IC50 [2]: > 10 µM

CN(CCN)Cc1c[nH]nc1-c1cc(F)cc(F)c1 [Compound 111]
IC50 [1]: < 0.1 µM | IC50 [2]: 0.101 to 1 µM

Cc1ccccc1-c1n[nH]cc1CN(C)CCN [Compound 161]
IC50 [1]: 0.101 to 1 µM | IC50 [2]: 3.01 to 10 µM
